Reference: patent publication US20250179113A1, “STEROID COMPOUND FOR TREATING CENTRAL NERVOUS SYSTEM DISEASE, METHOD FOR PREPARING SAME, AND USE AND PHARMACEUTICAL COMPOSITION THEREOF” (HUNAN KYF PHARMACEUTICAL CO., LTD., priority 2022, published 2025)

Tests used:
[1] = tested on: GABAa receptor chloride ion channel of U251 cells; test: MQAE chloride ion fluorescent probe test on U251 cells (GABA-activated chloride channel); type: cell-based, human; conditions: sample 10 μM (Table 1), GABA in matrix, 1 min after addition, n = 6, vehicle control 42.543 ± 4.202
[2] = tested on: mouse model of acute depression; test: Tail-suspension test, mouse model of acute depression; type: in vivo, ICR mice; conditions: 3 days; for Average Duration of Immobile State (Mean ± Standard Deviation), female: female ICR mice, model control 170.57 ± 28.43; for Average Duration of Immobile State (Mean ± Standard Deviation), female / Average Duration of Immobile State (Mean ± Standard Deviation), male: 26.0 mg/kg intraperitoneal, tested 24 h after administration, last 4 of 6 min, n = 5, 26 mg/kg; for Average Duration of Immobile State (Mean ± Standard Deviation), male: male ICR mice, model control 151.23 ± 35.02
Protocol: The experimental animals were administered drugs according to the grouping after 3 days of adaptive feeding. The experimental groups included the model group, the compound TM1 group, and the compound TM2 group. For each group of compounds to be tested, edible oil was used as the vehicle, and the administration route for all animals was intraperitoneal injection. The vehicle control group was given the same volume of edible oil by intraperitoneal injection, and the administration volume for each group was 20 mL/kg.
Brexanolone is used to treat postpartum depression. Its usage and dosage are continuous intravenous injection for 60 hours, with a dosage of 100 mg every 12 hours. At the beginning of the administration, it is necessary to gradually increase the drug use rate, and at the end of the administration, it is necessary to gradually decrease the drug use rate. Therefore, the total drug use within the treatment cycle is 450 mg. Referring to the Brexanolone administration cycle, the administration cycle was set to 3 days, with one administration in the morning every day.
The clinical dosage of Brexanolone is approximately 200 mg/d. Calculated based on an adult weight of 70 kg, the clinical dose of Brexanolone is 2.857 mg/kg/d. The equivalent dose conversion coefficient between humans and mice calculated according to body surface area is 0.0026. Taking the weight of mice as 20 g, the converted dose for mice is: 2.857 mg/kg/d×70 kg×0.0026/0.02 kg=25.999 mg/kg/d, which is counted as 26.0 mg/kg/d.
This study is for validity verification, and single-dose detection is used for the time being. The administration cycle and clinical dosage of the compounds of the present invention refer to the administration cycle and clinical dosage of Brexanolone mentioned above.
The detection indicator is the behavioral changes of mice in the last 4 minutes within 6 minutes, including the time when the immobile state first appears and the duration of the immobile state. Among them, the immobile state refers to the state in which the animal gives up active struggling and remains completely still.
Detection method: 24 hours after the administration of drugs to animals in each group, the animals in each group were placed in the laboratory for 30 minutes to 1 hour to reduce the animals' anxiety about the new environment. Install a video camera in front of the tail suspension box, set the corresponding parameters in the software, and enter the information such as the animal number and status. Take out the experimental animals, mark them with a marker pen at a position […] away from the tip of the tail, fix the tail at the marked position with medical tape. After the tails of the animals in the same group are fixed with tape, quickly suspend the mice in the same group into the tail suspension box device, turn on the behavioral software to record the behavioral situation for 6 minutes, and analyze the behavioral changes in the last 4 minutes.

[3] = tested on: GABAA receptor (primary hippocampal neuronal cells); test: Whole-cell patch clamp of GABA receptor currents in primary hippocampal neuronal cells; type: cell-based, SD suckling mice; conditions: average

SMILES	Average fluorescence intensity (mean ± standard deviation) [1]	Average Duration of Immobile State (Mean ± Standard Deviation), female [2]	Average Duration of Immobile State (Mean ± Standard Deviation), male [2]	immobility time prolonged compared with the model control group, male animals ([2]; male mice, 26.0 mg/kg i.p.)	The percentage increase after calibration with GABA 15 μM as the reference, GABA 15 μM + TM 18 0.01 μM ([3]; TM 18 0.01 μM with GABA 15 μM)	The percentage increase after calibration with GABA 15 μM as the reference, GABA 15 μM + TM 18 0.1 μM ([3]; TM 18 0.1 μM with GABA 15 μM)	The percentage increase after calibration with GABA 15 μM as the reference, GABA 15 μM + TM 18 1 μM ([3]; TM 18 1 μM with GABA 15 μM)
CC1(O)CCC2(C)C(CCC3C2CCC2(C)C(C(=O)Cn4cc(C#N)cn4)CCC32)C1 (stereo not shown) [TM17]	47.499±2.240	198.88 ± 15.08 s	177.67 ± 20.05 s	–	–	–	–
CC1(O)CCC2(C)C(CCC3C2CCC2(C)C(C(=O)Cn4cc(C#N)cn4)CCC32)C1 (stereo not shown) [TM18]	48.621±1.006	174.02 ± 18.28 s	193.80 ± 15.62 s	about 20%	129.85%	288.44%	108.82%
